Tests used:
[1] = xn = mol fraction of the nth substance listed; settings: 101 kPa, Liquid, Vibrating tube method
[2] = 101.33 kPa, Liquid, Vibrating tube method

O=Cc1ccccc1 [benzaldehyde] + CCCCn1cc[n+](C)c1.F[B-](F)(F)F
mass density [kg/m3], [1]
Settings	x2 = 0.1001	x2 = 0.1998	x2 = 0.2997	x2 = 0.4	x2 = 0.4999	x2 = 0.5998	x2 = 0.6999	x2 = 0.7971	x2 = 0.8991
298.15 K	1078.64	1105.45	1127.3	1145.56	1160.76	1173.77	1184.7	1193.8	1202.44
303.15 K	1072.78	1098.6	1119.46	1136.76	1151.14	1163.4	1173.86	1182.59	1190.51
308.15 K	1068.6	1094.81	1116.11	1133.67	1148.32	1160.74	1171.52	1180.59	1188.53
313.15 K	1064.7	1090.93	1112.3	1129.92	1144.5	1156.92	1167.64	1176.6	1184.48

CCCCn1cc[n+](C)c1.F[B-](F)(F)F [1-butyl-3-methylimidazolium tetrafluoroborate]
[2]
Settings	mass density [kg/m3]
298.15 K	1211.03
303.15 K	1197.45
308.15 K	1194.6
313.15 K	1190.44

O=Cc1ccccc1 [benzaldehyde]
[2]
Settings	mass density [kg/m3]
298.15 K	1044.2
303.15 K	1040.21
308.15 K	1036.15
313.15 K	1032.15
